Measured values taken from the NIST ThermoML archive (doi:10.1021/acs.jced.8b00600).
± gives the expanded uncertainty stated by the source.

Columns and labels:
[1] = xn = mol fraction of the nth substance listed; details: 313.15 K; 101.3 kPa; Liquid; Vibrating tube method; x2 = 0.333
[2] = refractive index (Na D-line) (dimensionless); xn = mol fraction of the nth substance listed; details: 313.15 K; 101.3 kPa; Liquid; Standard Abbe refractometry; x2 = 0.333

OCCCCCCO [1,6-hexanediol] + CCC[N+](CCC)(CCC)CCC.[Br-]
mass density [1]: 1042.25 ± 2 kg/m3
refractive index [2]: 1.47923 ± 0.002
